Measured values from patent US20250143307A1 (priority 2021, published 2025).

Columns and labels:
[1] = Manual friction / abrasion resistance of electrostatically sprayed coatings on glass slides; type: physicochemical; settings: glass slide
Description: A glass slide was treated according to the following protocol: • 1) The surface was prepared by cleaning with isopropanol, and allowed to dry; • 2) The sprayer was held about 1 m from the target surface. • 3) The titanium anatase phase in aqueous solution (a mixture of peroxotitanic acid and peroxo-modified anatase sol 0.8%) was sprayed onto the surface using an electrostatic sprayer to form a coating on the target surface. • 4) The surface was allowed to dry for 5 to 10 minutes. • 5) The electrostatic sprayer was rinsed with distilled water. • 6) The biocidal polymer coating solution was added to the sprayer tank. • 7) The biocidal polymer coating solution was sprayed onto the surface at a 1 m distance away from the surface. • 8) The surface was examined to ensure it was not over-saturated with coating solution. • 9) The surface was allowed to dry for several hours.
A second glass slide was treated according to the protocol described above, except the surface was coated with the biocidal polymer solution first, followed by the titanium anatase phase.
In both methods, it was observed that the coating resisted repeated manual friction (over 20 cycles) using both wetted and dry paper towel, cotton-based cloth, and polyester/polypropylene wipes.
Treated and control glass slides were transferred to a 1% fluorescein solution for 10 minutes. […]

[2] = Surface charge determination by fluorescein test; type: physicochemical; settings: activated glass coverslips, spin-coated, baked at 110° C. for 60 minutes
Description: Surface cationic density (N^+/cm^2) was calculated using UV/Vis absorbance of fluorescein. Fluorescein dye molecules (negatively charged) strongly bind to quaternary amino groups (positively charged) belonging to the polymeric chain. The stoichiometry of fluorescein binding is estimated at one dye molecule per four quaternary ammonium moieties. Treated plates were placed in a 1% fluorescein aqueous solution for five minutes, and then rinsed and sonicated in distilled water for several minutes in order to remove physisorbed fluorescein. Plates were rinsed with distilled water and immersed in 3 mL of CTAB 0.5% (aqueous solution of cetyltrimehylammonium bromide) along with PBS (Phosphate-Buffered Saline) (90% CTAB/10% PBS) and sonicated for 10 minutes. The optical density of chemisorbed fluorescein was measured at 501 nm wavelength.

SMILES | resistance of coating to repeated manual friction ([1]; sprayed with titanium anatase 0.8%, wetted and dry paper towel, cotton cloth, polyester/polypropylene wipes) | abrasion resistance by fluorescein test after manual friction ([1]; titanium anatase sprayed first, then the coating solution) | Calculated surface cationic density [2]
CCCCCCCCCCCCCCCCCC[N+](C)(C)CCC[Si](OC)(OC)OC.[Cl-] [octadecyldimethyl(3-trimethoxysilylpropyl)ammonium chloride] | did not resist manual friction | did not resist minor abrasion | –
CCCCCCCCCCCCCCCCCC[N+](C)(C)CC(=O)c1ccc(O)c(O)c1 | – | – | 4×10^14 cations/cm^2
